SMILES strings stand for the structures. Square brackets hold non-standard residues; d marks the D form. Side chains are listed from the residue outwards. Peptide text beside a SMILES is read from it. * marks the point of attachment. Phe(2-F) = N[C@@H](Cc1ccccc1F)C(=O)O; NMeY = CN[C@@H](Cc1ccc(O)cc1)C(=O)O; Palmitoyl = CCCCCCCCCCCCCCCC(=O)*; αMeF = C[C@](N)(Cc1ccccc1)C(=O)O; Iva = CC[C@](C)(N)C(=O)O; Aib = CC(C)(N)C(=O)O

The EC50 is the concentration at which the effect is half-maximal.

The target of one assay is T1, human NPY2R (Homo sapiens, UniProt P49146).
T1 construct: expressed in transfected cells; host or cells: CHO-K1 Cre-luc reporter cells (pAKKO1114/hNPY2R#481 No. 88 cells)
T1 sequence (P49146 1-381): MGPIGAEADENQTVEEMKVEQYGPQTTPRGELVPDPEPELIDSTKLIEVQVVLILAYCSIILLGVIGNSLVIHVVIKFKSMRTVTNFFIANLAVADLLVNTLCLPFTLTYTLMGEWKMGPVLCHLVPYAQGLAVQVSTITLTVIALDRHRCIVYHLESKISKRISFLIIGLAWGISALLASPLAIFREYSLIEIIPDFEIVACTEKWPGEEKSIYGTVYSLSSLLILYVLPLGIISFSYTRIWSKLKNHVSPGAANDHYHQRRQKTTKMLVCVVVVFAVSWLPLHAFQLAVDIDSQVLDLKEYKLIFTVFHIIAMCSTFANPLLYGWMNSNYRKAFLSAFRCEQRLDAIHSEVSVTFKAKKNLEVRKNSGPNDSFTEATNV
The experiment in a line: Reporter assay of human NPY2R gene (agonist activity, decrease in intracellular cAMP as index). To be noted: Cre-luc reporter, hNPY2R CHO-K1 cells, forskolin 1.2 μM, 4 hours; read-out: Agonist activity (EC50) hY2R. Format: cell-based. The text has this:
(§1) Evaluation of Agonist Activity Against Human NPY2R, Human GIPR, and Human GLP-1R Using Change in Intracellular cAMP Concentration as Index
The human NPY2R gene having a sequence identical to the sequence of GenBank Accession No. AC104407 was cloned into pAKKO1114 vector to prepare hNPY2R/pAKKO1114. Next, pGL4.29 (Promega) was introduced to CHO-K1 cells, which were then screened with hygromycin to construct Cre-luc reporter cells. These cells were cotransfected with hNPY2R/pAKKO1114 and pcDNA3.1 (Life Technologies Corp.), and the cells were screened with geneticin. Next, a cell line induced to express luciferase, i.e., pAKKO1114/hNPY2R#481 No. 88 cells, were selected from the obtained transformants by the addition of human PYY (3-36).
The pAKKO1114/hNPY2R#481 No. 88 cells were inoculated at a cell density of 25 μL/well (5,000 cells/well) to a 384-well white plate (Corning, 3570), and cultured overnight in Ham F12 medium containing 10% fetal bovine serum, 100 U/mL penicillin and 100 μg/mL streptomycin in a CO2 incubator of 37° C. On the next day, the medium was removed, and an assay medium (Ham F12 medium containing 0.1% BSA, 100 U/mL penicillin and 100 μg/mL streptomycin) containing forskolin (final concentration: 1.2 μM) was added at a concentration of 25 μL/well to the cells. Next, an assay medium containing a test compound was added at a concentration of 5 μL/well to the cells, and the resultant cells were incubated for 4 hours in a CO2 incubator of 37° C. to give the final concentration of 1 μM. SteadyGlo (Promega) was added thereto at a concentration of 30 μL/well, and the mixture was left standing for 20 minutes with light shielded. The luciferase activity was measured using a plate reader Envision (PerkinElmer). The luciferase activity from the addition of DMSO was defined as 100%, and the luciferase activity from the addition of 1 μM human PYY(3-36) instead of the test compound was defined as 0%. The NPY2R agonist activity was calculated with a decrease in intracellular cAMP concentration as an index.
On the technique in general: Reporter assays use an easily measured gene product as a stand-in for the process of interest.

Another assay concerns male C57BL/6J mouse. The experiment in a line: Evaluation of feeding suppressive action in mice. Format: in vivo. To be noted: 30 nmol/kg s.c. once a day for 3 days; 3-days cumulative food consumption vs solvent control. A digest of the protocol:
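Male C57BL/6J mice, 8-9 weeks, ad libitum fed, given compound (30 or 100 nmol/2 mL in 10% DMSO saline) s.c. at 2 mL/kg once daily for 3 days. Cumulative 3-day food consumption measured by weighing; suppression rate (%) calculated relative to vehicle controls.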

A further assay deals with T2, human GIPR (Homo sapiens, UniProt P48546).
T2 construct: expressed in transfected cells; host or cells: CHO-K1 Cre-luc reporter cells (hGIPR/CHO-K1, also called hGIPR/CRE-LUC/CHO-K1)
T2 sequence (P48546 22-466): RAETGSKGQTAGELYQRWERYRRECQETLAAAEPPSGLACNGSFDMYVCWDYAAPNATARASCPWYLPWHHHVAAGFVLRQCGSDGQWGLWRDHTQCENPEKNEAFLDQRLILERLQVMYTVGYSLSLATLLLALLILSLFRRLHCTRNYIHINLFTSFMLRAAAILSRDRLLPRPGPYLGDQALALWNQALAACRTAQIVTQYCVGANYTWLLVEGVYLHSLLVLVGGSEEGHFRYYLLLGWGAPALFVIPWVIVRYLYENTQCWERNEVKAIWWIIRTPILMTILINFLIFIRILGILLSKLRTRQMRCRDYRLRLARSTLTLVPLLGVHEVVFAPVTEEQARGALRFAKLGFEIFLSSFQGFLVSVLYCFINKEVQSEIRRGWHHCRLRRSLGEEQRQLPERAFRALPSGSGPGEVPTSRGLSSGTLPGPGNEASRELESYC
Nature of the assay: Reporter assay of human GIPR gene (agonist activity, intracellular cAMP as index). Particulars: Cre-luc reporter, hGIPR/CHO-K1 cells, 4 hours. Format: cell-based.
Source text: as §1
The human GIPR gene having a sequence identical to the sequence of GenBank Accession No. U39231 was cloned into pMSRα-neo vector to prepare hGIPR/pMSRα-neo. This vector was introduced to the Cre-luc reporter cells obtained in (1) to obtain transformants. Next, a cell line induced to express luciferase, i.e., hGIPR/CHO-K1 cells, were selected from the obtained transformants by the addition of GIP.
(§2) The hGIPR/CRE-LUC/CHO-K1 cells or the hGLP-1R/Crel cells were inoculated at a cell density of 25 μL/well (5,000 cells/well) to a 384-well white plate (Corning, 3570), and cultured overnight in Ham F12 medium containing 10% fetal bovine serum, 100 U/mL penicillin and 100 μg/mL streptomycin in a CO2 incubator of 37° C. On the next day, a medium containing a test compound was added at a concentration of 5 μL/well to the cells, and the resultant cells were incubated for 4 hours in a CO2 incubator of 37° C. to give the final concentration of 1 μM. SteadyGlo (Promega) was added thereto at a concentration of 30 μL/well, and the mixture was shaken with light shielded. After 30 minutes, the luciferase activity was measured using a plate reader Envision (PerkinElmer). For the GIPR agonist activity, the luciferase activity in the presence of 10 μM GIP was defined as 100%, and the luciferase activity from the addition of DMSO instead of the test compound was defined as 0%. The GIPR agonist activity was calculated with a rise in intracellular cAMP concentration as an index.

For the next assay, the target named is T3, human GLP-1R (Homo sapiens, UniProt P43220).
T3 construct: expressed in transfected cells; host or cells: CHO-K1 Cre-luc reporter cells (hGLP-1R/Crel cells)
The experiment in a line: Reporter assay of human GLP-1R gene (agonist activity, intracellular cAMP as index). Format: cell-based. To be noted: Cre-luc reporter, hGLP-1R/Crel cells (CHO-K1), 4 hours.
Source text: as §1
The human GLP-1R gene having a sequence identical to the sequence of GenBank Accession No. NM_002062 was cloned into pIRESneo3 vector (Clontech Laboratories, Inc.) to prepare hGLP-1R/pIRESneo3. This vector was introduced to the Cre-luc reporter cells obtained in (1) to obtain transformants. Next, a cell line induced to express luciferase, i.e., hGLP-1R/Crel cells, were selected from the obtained transformants by the addition of human GLP-1(7-37) peptide.
as §2
For the GLP-1R agonist activity, assay similar to above was conducted using the hGLP-1R/Crel cells. The luciferase activity in the presence of 10 μM GLP-1 was defined as 100%, and the luciferase activity from the addition of DMSO instead of the test compound was defined as 0%. The GLP-1R agonist activity was calculated with a rise in intracellular cAMP concentration as an index.

T3 sequence (P43220 24-463): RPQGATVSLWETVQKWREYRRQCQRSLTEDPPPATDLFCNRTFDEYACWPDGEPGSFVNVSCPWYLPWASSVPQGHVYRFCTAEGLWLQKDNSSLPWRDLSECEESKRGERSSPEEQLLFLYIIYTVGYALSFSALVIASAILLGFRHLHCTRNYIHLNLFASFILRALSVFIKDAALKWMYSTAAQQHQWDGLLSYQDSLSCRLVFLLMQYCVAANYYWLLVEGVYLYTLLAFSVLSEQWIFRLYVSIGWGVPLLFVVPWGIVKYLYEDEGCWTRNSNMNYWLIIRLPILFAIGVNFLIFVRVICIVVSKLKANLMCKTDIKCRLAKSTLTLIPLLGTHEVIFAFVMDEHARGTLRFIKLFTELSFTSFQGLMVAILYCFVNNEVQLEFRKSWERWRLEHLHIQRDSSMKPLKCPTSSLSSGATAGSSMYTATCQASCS

Turning to `CCCCCCCCCCCCCCCC(=O)NCC(=O)NCC(=O)NCC(=O)NCC(=O)NCCCC[C@H](NC(=O)[C@H](CC(=O)O)NC(=O)[C@H](CO)NC(=O)[C@@H](NC(=O)[C@](C)(Cc1ccccc1)NC(=O)[C@@H](NC(=O)CNC(=O)[C@H](CCC(=O)O)NC(=O)C(C)(C)NC(=O)[C@H](Cc1ccc(O)cc1)NC)[C@@H](C)O)[C@@H](C)O)C(=O)N[C@@H](C)C(=O)N[C@H](C(=O)NC(C)(C)C(=O)N[C@@H](CC(C)C)C(=O)N[C@@H](CC(=O)O)C(=O)N[C@@H](CCCCN)C(=O)N[C@@H](CCC(N)=O)C(=O)N[C@@H](CCCNC(=N)N)C(=O)N[C@@H](CCC(N)=O)C(=O)N[C@@](C)(CC)C(=O)N[C@@H](CCC(=O)O)C(=O)N[C@@H](Cc1ccccc1)C(=O)N[C@H](C(=O)N[C@@H](CCCNC(=N)N)C(=O)N[C@@H](Cc1c[nH]cn1)C(=O)N[C@@H](CC(C)C)C(=O)N[C@@H](CC(C)C)C(=O)N[C@@H](CC(N)=O)C(=O)N[C@@H](CCCCN)C(=O)NC(C)(C)C(=O)N[C@H](C(=O)N[C@@H](CCCNC(=N)N)C(=O)N[C@@H](CCC(N)=O)C(=O)N[C@@H](CCCNC(=N)N)C(=O)N[C@@H](Cc1ccc(O)cc1)C(N)=O)[C@@H](C)O)C(C)C)[C@@H](C)CC` [Example 13] (H-[NMeY][Aib]EGT[αMeF]TSDK([Gly-Gly-Gly-Gly-Palmitoyl])AI[Aib]LDKQRQ[Iva]EFVRHLLNK[Aib]TRQRY-NH2), the EC50 at human NPY2R stood at 0.1 nM; at human GIPR, 0.074 nM. Moreover, in the assay with male C57BL/6J mouse, the “Rate of feeding suppression (%)” value was −41.0%.
The like results for `CCCCCCCCCCCCCCCC(=O)NCC(=O)NCC(=O)NCC(=O)NCC(=O)NCCCC[C@H](NC(=O)[C@H](CC(=O)O)NC(=O)[C@H](CO)NC(=O)[C@@H](NC(=O)[C@](C)(Cc1ccccc1)NC(=O)[C@@H](NC(=O)CNC(=O)[C@H](CCC(=O)O)NC(=O)C(C)(C)NC(=O)[C@@H](N)Cc1ccc(O)cc1)[C@@H](C)O)[C@@H](C)O)C(=O)NC(C)(C)C(=O)N[C@H](C(=O)NC(C)(C)C(=O)N[C@@H](CC(C)C)C(=O)N[C@@H](CC(=O)O)C(=O)N[C@@H](CCCCN)C(=O)N[C@@H](CCC(N)=O)C(=O)N[C@@H](CCCNC(=N)N)C(=O)N[C@@H](CCC(N)=O)C(=O)N[C@@](C)(CC)C(=O)N[C@@H](CCC(=O)O)C(=O)N[C@@H](Cc1ccccc1)C(=O)N[C@H](C(=O)N[C@@H](CCCNC(=N)N)C(=O)N[C@@H](Cc1c[nH]cn1)C(=O)N[C@@H](CC(C)C)C(=O)N[C@@H](CC(C)C)C(=O)N[C@@H](CC(N)=O)C(=O)N[C@@H](CCCCN)C(=O)NC(C)(C)C(=O)N[C@H](C(=O)N[C@@H](CCCNC(=N)N)C(=O)N[C@@H](CCC(N)=O)C(=O)N[C@@H](CCCNC(=N)N)C(=O)N[C@@H](Cc1ccc(O)cc1)C(N)=O)[C@@H](C)O)C(C)C)[C@@H](C)CC` [Example 7] (H-Y[Aib]EGT[αMeF]TSDK([Gly-Gly-Gly-Gly-Palmitoyl])[Aib]I[Aib]LDKQRQ[Iva]EFVRHLLNK[Aib]TRQRY-NH2) were, in that order, 0.1 nM, 0.068 nM and −37.6%.
As for `CCCCCCCCCCCCCCCC(=O)NCC(=O)NCC(=O)NCC(=O)NCC(=O)NCCCC[C@H](NC(=O)[C@H](CC(=O)O)NC(=O)[C@H](CO)NC(=O)[C@@H](NC(=O)[C@](C)(Cc1ccccc1)NC(=O)[C@@H](NC(=O)CNC(=O)[C@H](CCC(=O)O)NC(=O)C(C)(C)NC(=O)[C@H](Cc1ccc(O)cc1)NC)[C@@H](C)O)[C@@H](C)O)C(=O)NC(C)(C)C(=O)N[C@H](C(=O)NC(C)(C)C(=O)N[C@@H](CC(C)C)C(=O)N[C@@H](CC(=O)O)C(=O)N[C@@H](CCCCN)C(=O)N[C@@H](CCC(N)=O)C(=O)N[C@@H](CCCNC(=N)N)C(=O)N[C@@H](CCC(N)=O)C(=O)N[C@@](C)(CC)C(=O)N[C@@H](CCC(=O)O)C(=O)N[C@@H](Cc1ccccc1)C(=O)N[C@H](C(=O)N[C@@H](CCCNC(=N)N)C(=O)N[C@@H](Cc1c[nH]cn1)C(=O)N[C@@H](CC(C)C)C(=O)N[C@@H](CC(C)C)C(=O)N[C@@H](CC(N)=O)C(=O)N[C@@H](CCCCN)C(=O)NC(C)(C)C(=O)N[C@H](C(=O)N[C@@H](CCCNC(=N)N)C(=O)N[C@@H](CCC(N)=O)C(=O)N[C@@H](CCCNC(=N)N)C(=O)N[C@@H](Cc1ccccc1F)C(N)=O)[C@@H](C)O)C(C)C)[C@@H](C)CC` [Example 5] (H-[NMeY][Aib]EGT[αMeF]TSDK([Gly-Gly-Gly-Gly-Palmitoyl])[Aib]I[Aib]LDKQRQ[Iva]EFVRHLLNK[Aib]TRQR[Phe(2-F)]-NH2), the 50% effective concentration (EC50) on human GLP-1R stood at 0.13 nM.

For the origin of these results see US10501516B2, “Peptide compound” (TAKEDA PHARMACEUTICAL COMPANY LIMITED, priority 2016, dated 2019).
